Results as given in patent US6936625B2 (Hanmi Pharm. Co., Ltd., priority 2001, dated 2005).
Converted amounts (≈) assume the structure as drawn. Where two headings read alike, the source gives them in different places.

Experiments:
[1] = test system: Quail; conditions: oral; cited from earlier work
[2] = test system: Mouse; conditions: in vivo, sc; cited from earlier work
[3] = Solubility test (saturation in distilled water, liquid chromatography); assay type: physicochemical; conditions: for Solubility: distilled water to saturation, based on the amount of amlodipine
Procedure: The measurement was performed according to the procedure described in the Korean Pharmacopoeia (Korean Ministry of Health and Welfare, General principle of medical supplies, Vol. 1, Clause 29, the 7th revision) which comprises the steps of dissolving each compound in distilled water to saturation, analyzing the saturated solution with liquid chromatography, and measuring the dissolved amount of each compound based on the amount of amlodipine.

[4] = Stability test (storage at 55° C., about 50% relative humidity); assay type: physicochemical; set-up: remaining amount of active amlodipine: unit not given here; conditions: relative humidity about 50%; for time-dependent stability (in words): up to 4 weeks
Procedure: Specifically, each compound was stored at 55° C., a relative humidity of about 50%, and after 1, 2, 3 and 4 weeks, the remaining amount of active amlodipine was determined with a liquid chromatography.

[5] = Non-hygroscopicity test (moisture content); assay type: physicochemical; conditions: for moisture content, Condition 2: 30° C. under 95% relative humidity for 3 days; for moisture content, Condition 1: 37° C. under 75% relative humidity for 24 hours; for Initial moisture: before exposure
Procedure: When a solid form of a drug is to be formulated, it is important that the drug is not hygroscopic. Accordingly, the hygroscopicity of the inventive amlodipine camsylate was measured and compared with that of amlodipine besylate.
Each compound was exposed to two conditions: 37° C. under 75% relative humidity for 24 hours (condition 1) and 30° C. under 95% relative humidity for 3 days (condition 2), and then, the moisture content of each compound was measured according to the method described in Korean Patent Publication No. 1995-7228.

[6] = test system: Rat; conditions: oral; cited from earlier work
[7] = test system: Cat; conditions: cutaneous; cited from earlier work
[8] = test system: Wild-birds; conditions: oral; cited from earlier work
[9] = in a solution; cited from earlier work

Compound	remaining amount of active amlodipine ([4]; 1 week)	remaining amount of active amlodipine ([4]; 2 weeks)	remaining amount of active amlodipine ([4]; 3 weeks)	remaining amount of active amlodipine ([4]; 4 weeks)	remaining amount of active amlodipine ([4]; Initial)	moisture content, Condition 2 [5] [%]	moisture content, Condition 1 [5] [%]	Initial moisture [5] [%]	also measured
CC1(C)C2CCC1(CS(=O)(=O)O)C(=O)C2 (racemic) [(±)-10-Camphor sulfonic aicd, (±)-10-camphor sulfonic acid]	–	–	–	–	–	–	–	–	LD50 [1]: LD50 > 316 mg/kg
CC1(C)C2CC[C@@]1(CS(=O)(=O)O)C(=O)C2 [(1S)-(+)-10-Camphor sulfonic acid, (1S)-(+)-10-camphor sulfonic acid]	–	–	–	–	–	–	–	–	LD50 [2]: LD50 2502 mg/kg
CCOC(=O)C1=C(COCCN)NC(C)=C(C(=O)OC)C1c1ccccc1Cl (stereo not drawn) [Amlodipine besylate, amlodipine benzenesulfonate, reference compound]	0.992	0.996	0.993	0.993	1	0.15	0.05	0.05	Solubility ([3]; distilled water, water, thermodynamic from solid, read-out: Solubility): 1400 µg/mL; time-dependent stability (in words) [4]: slight but significant degradation after 1 week
CCOC(=O)C1=C(COCCN)NC(C)=C(C(=O)OC)C1c1ccccc1Cl [Amlodipine camsylate of Example 1 (S), Amlodipine Camsylate]	1	0.998	1	1	1	0.15	0.05	0.05	Solubility [3]: 1225 µg/mL (≈ 3 mM); Saturation pH ([3]; saturated solution in distilled water): 6.0
CCOC(=O)C1=C(COCCN)NC(C)=C(C(=O)OC)C1c1ccccc1Cl [Amlodipine camsylate of Example 2 (R), Amlodipine Camsylate]	1	1	1.002	1	1	0.15	0.05	0.05	Solubility [3]: 1250 µg/mL (≈ 3.06 mM)
CCOC(=O)C1=C(COCCN)NC(C)=C(C(=O)OC)C1c1ccccc1Cl (stereo not drawn) [Amlodipine camsylate, amlodipine camsylate]	–	–	–	–	–	–	–	–	time-dependent stability (in words) [4]: stable during the 4 weeks period
O=S(=O)(O)c1ccccc1 [Benzene sulfonic acid]	–	–	–	–	–	–	–	–	LD50 [6]: LD50 890 μl/kg; LDLO [7]: LDLO 10 g/kg; LD50 [8]: LD50 75 mg/kg
amlodipine maleate	–	–	–	–	–	–	–	–	stability in solution (in words) [9]: degrades in a solution within several weeks
